Data taken from patent US20260223846A1, “PEPTIDE IN COMBINATION WITH FUNGICIDE COMPOSITIONS FOR FUNGAL CONTROL AND RELATED METHODS” (priority 2023, published 2026).
Read-outs that look alike come from different tables or passages of the source. Where no end group is shown, it is not given here.

Experiments:
Fusarium proliferatum = assay: Co-incubation (oCelloScope) assay, F. proliferatum conidial germination; type: cell-based
Botrytis (Strain B05.10) = assay: Botrytis inhibition assay (resazurin assay); type: cell-based; conditions: for inhibition at 1 µM: tested alone at 1 μM
[1] = test system: Fusarium oxysporum f. sp. lycopersici (Saccardo) Snyder et Hansen CBS 167.30; assay: Resazurin plate co-incubation assay, F. oxysporum; type: cell-based; conditions: for Inhibition: 50 micromolar; for Summary of CGI factor spectrum of activity: Fusarium oxysporum
[2] = test system: Pseudoperonospora cubensis; assay: Pseudoperonospora cubensis (cucurbit downy mildew) leaf disk assay; type: in vivo; conditions: for Summary of CGI factor spectrum of activity: Downy Mildew
Botrytis cinerea b05.10 = type: cell-based
[3] = test system: Fusarium graminearum (Gibberella zeae); type: cell-based; conditions: for Inhibition: 50 micromolar; for Summary of CGI factor spectrum of activity: Fusarium graminearum
[4] = tested alone at 5 uM, 24 hours at 23° C.
[5] = tested alone at 0.25 uM, 24 hours at 23° C.
[6] = tested alone at 0.5 uM, 24 hours at 23° C.
[7] = tested alone at 1 uM, 24 hours at 23° C.
[8] = 10 micromolar, 24 hours at 20° C.
[9] = 100 micromolar, 24 hours at 20° C.
[10] = Botrytis cinerea, at least one concentration tested
[11] = tested alone at 0.02 ug/ml, 24 hours at 23° C.
[12] = tested alone at 0.2 ug/ml, 24 hours at 23° C.
[13] = tested alone at 2 ug/ml, 24 hours at 23° C.
[14] = read-out: Percent Inhibition EXP23002594
[15] = read-out: Percent Inhibition EXP23002662

C[C@@H]1C/C=C/C=C/C=C/C=C/[C@H](O[C@@H]2O[C@H](C)[C@@H](O)[C@H](N)[C@@H]2O)C[C@@H]2O[C@](O)(C[C@@H](O)C[C@H]3O[C@@H]3/C=C/C(=O)O1)C[C@H](O)[C@H]2C(=O)O [Natamycin]
Inhibition of conidial germination (Fusarium proliferatum; [4]): did not show any inhibition | Inhibition of conidial germination (Fusarium proliferatum; tested alone at 5 ug/ml, 24 hours at 23° C.): No | Inhibition of conidial germination (Fusarium proliferatum; tested alone at 10 ug/ml, 24 hours at 23° C.): No | Inhibition of conidial germination (Fusarium proliferatum; tested alone at 100 ug/ml, 24 hours at 23° C.): inhibited fungal growth and Yes | inhibition at 100 µM (Botrytis (Strain B05.10); Table 20, tested alone at 100 μM (positive control), read-out: Percent Inhibition (Median)): 101% | inhibition at 100 µM (Botrytis (Strain B05.10); tested alone at 100 μM (positive control 1), read-out: Percent Inhibition EXP23002534): 100% | inhibition at 100 µM (Botrytis (Strain B05.10); tested alone at 100 μM (positive control 1), read-out: Percent Inhibition EXP23002594): 101% | inhibition at 100 µM (Botrytis (Strain B05.10); tested alone at 100 μM, read-out: Percent Inhibition EXP23002662): 101%

RRRRRRRR [Pep462, Octaarginine (R8) cell-penetrating peptide (non-CGI peptide CONTROL)]
Inhibition [1]: Yes | Summary of CGI factor spectrum of activity [1]: Yes | Inhibition of conidial germination (Fusarium proliferatum; tested alone at 0.125 uM, 24 hours at 23° C.): No | Inhibition of conidial germination (Fusarium proliferatum; [5]): No | Inhibition of conidial germination (Fusarium proliferatum; [6]): No | Inhibition of conidial germination (Fusarium proliferatum; [7]): effective and Yes | Inhibition (reduced disease severity of leaf discs) ([2]; 20 micromolar): did not and No | Summary of CGI factor spectrum of activity [2]: No | Inhibition (Botrytis cinerea b05.10; [8]): inhibited and Yes | Inhibition (Botrytis cinerea b05.10; [9]): inhibited and Yes | Summary of CGI factor spectrum of activity (Botrytis cinerea b05.10; [10]): completely inhibited conidial germination and Yes | Inhibition [3]: Yes | Summary of CGI factor spectrum of activity [3]: Yes

WHWLQLKPGQPMYWHWLQLKPGQPMY (listed as Saccharomyces cerevisiae) [Pep301, S. cerevisiae Alpha-pheromone homodimer]
Inhibition [1]: Yes | Summary of CGI factor spectrum of activity [1]: Yes | Inhibition of conidial germination (Fusarium proliferatum; [5]): No | Inhibition of conidial germination (Fusarium proliferatum; [6]): No | Inhibition of conidial germination (Fusarium proliferatum; [7]): Yes | Inhibition (reduced disease severity of leaf discs) ([2]; 20 micromolar): reduced the disease severity and Yes | Summary of CGI factor spectrum of activity [2]: Yes | Inhibition (Botrytis cinerea b05.10; [8]): No | Inhibition (Botrytis cinerea b05.10; [9]): active and Yes | Summary of CGI factor spectrum of activity (Botrytis cinerea b05.10; [10]): completely inhibited conidial germination and Yes | Inhibition [3]: Yes | Summary of CGI factor spectrum of activity [3]: Yes

N#Cc1c[nH]cc1-c1cccc(Cl)c1Cl [Fenpiclonil]
Inhibition of conidial germination (Fusarium proliferatum; [4]): did not inhibit conidial germination and No | Inhibition of conidial germination (Fusarium proliferatum; tested alone at 10 uM, 24 hours at 23° C.): No | Inhibition of conidial germination (Fusarium proliferatum; tested alone at 50 uM, 24 hours at 23° C.): Yes

WCTWKGQPCW [Pep105]
Inhibition of conidial germination (Fusarium proliferatum): No and Yes | Inhibition (Botrytis cinerea b05.10): No | Summary of CGI factor spectrum of activity (Botrytis cinerea b05.10): No

Drosomycin (DCLSGRYKGPCAVWDNETCRRVCKEEGRSSGHCSPSLKCWCEGC; disulfide (positions not given here); not fully specified; ends not checked; also: four intramolecular disulfide bridges, pairing not given here; UniProt P41964 27-70, looked up) [44-residue antifungal peptide with four intramolecular disulfide bridges, heterologously expressed in E. coli]
Inhibition of conidial germination (Fusarium proliferatum; [6]): did not show any inhibition and No | Inhibition of conidial germination (Fusarium proliferatum; [7]): did not show any inhibition and No | Inhibition of conidial germination (Fusarium proliferatum; tested alone at 8 uM, 24 hours at 23° C.): Yes

CC1(C)CCC(Cc2ccc(Cl)cc2)C1(O)Cn1cncn1 (stereo not shown) [Metconazole]
Inhibition of conidial germination (Fusarium proliferatum; [11]): did not show any inhibition and No | Inhibition of conidial germination (Fusarium proliferatum; [12]): No | Inhibition of conidial germination (Fusarium proliferatum; [13]): inhibited fungal growth and Yes

WHWLQLKPGQPMYGGGGWHWLQLKPGQPMY (listed as Saccharomyces cerevisiae) [Pep302, S. cerevisiae Alpha-pheromone homodimer with GGGG linker]
Inhibition of conidial germination (Fusarium proliferatum; [5]): No | Inhibition of conidial germination (Fusarium proliferatum; [6]): No | Inhibition of conidial germination (Fusarium proliferatum; [7]): Yes

WCGRPGQPC (REGION 1..9: note = Botrytis spp.) [Pep106, B. cinerea Alpha-pheromone]
Inhibition (Botrytis cinerea b05.10; [8]): No | Inhibition (Botrytis cinerea b05.10; [9]): No | Summary of CGI factor spectrum of activity (Botrytis cinerea b05.10; [10]): No

CON=C(C(=O)OC)c1ccccc1CON=C(C)c1cccc(C(F)(F)F)c1 [Trifloxystrobin]
Inhibition of conidial germination (Fusarium proliferatum; [12]): neither boscalid nor trifloxystrobin showed any inhibition and No | Inhibition of conidial germination (Fusarium proliferatum; [13]): neither boscalid nor trifloxystrobin showed any inhibition and No

N#Cc1c[nH]cc1-c1cccc2c1OC(F)(F)O2 [Fludioxonil]
Inhibition of conidial germination (Fusarium proliferatum; [11]): did not show any inhibition and No | Inhibition of conidial germination (Fusarium proliferatum; [12]): No | Inhibition of conidial germination (Fusarium proliferatum; [13]): Yes

O=C(Nc1ccccc1-c1ccc(Cl)cc1)c1cccnc1Cl [Boscalid]
Inhibition of conidial germination (Fusarium proliferatum; [12]): neither boscalid nor trifloxystrobin showed any inhibition and No | Inhibition of conidial germination (Fusarium proliferatum; [13]): neither boscalid nor trifloxystrobin showed any inhibition and no inhibition and No

CC[C@H](C)C[C@H](C)CCCCCCCCC(=O)N[C@H]1C[C@@H](O)[C@@H](NCCN)NC(=O)[C@@H]2[C@@H](O)CCN2C(=O)[C@H]([C@H](O)CCN)NC(=O)[C@H]([C@H](O)[C@@H](O)c2ccc(O)cc2)NC(=O)[C@@H]2C[C@@H](O)CN2C(=O)[C@H]([C@@H](C)O)NC1=O [Caspofungin]
inhibition at 1 µM (Botrytis (Strain B05.10); read-out: Percent Inhibition EXP23002534): 1.08% | inhibition at 1 µM (Botrytis (Strain B05.10); [14]): 98.7% | inhibition at 1 µM (Botrytis (Strain B05.10); [15]): 3.1%

Cc1cc(C2CC2)nc(Nc2ccccc2)n1 [Cyprodinil]
inhibition at 50 µM (Botrytis (Strain B05.10); [14]): 73.6% | inhibition at 50 µM (Botrytis (Strain B05.10); [15]): 53.7% | inhibition at 100 µM (Botrytis (Strain B05.10); [15]): 74.8%

WHWLQLKPGQPMY (listed as Saccharomyces cerevisiae) [Pep107, S. cerevisiae Alpha-pheromone]
Inhibition [1]: Yes | Summary of CGI factor spectrum of activity [1]: Yes | Inhibition (reduced disease severity of leaf discs) ([2]; 200 micromolar): reduced the disease severity and Yes | Summary of CGI factor spectrum of activity [2]: Yes | Inhibition (Botrytis cinerea b05.10; [8]): No | Inhibition (Botrytis cinerea b05.10; [9]): moderate inhibition and Some | Summary of CGI factor spectrum of activity (Botrytis cinerea b05.10; [10]): Yes | Inhibition [3]: did not show any inhibition and No | Summary of CGI factor spectrum of activity [3]: No
